Source: US20260138981A1, “DIHYDROFOLATE REDUCTASE INHIBITORS FOR ANTI-BIOTIC RESISTANT INFECTIONS” (THE TRUSTEES OF PRINCETON UNIVERSITY, priority 2022, published 2026)

Assays:
[1] = system: S. epidermidis, E. cloacae, E. faecalis, K. pneumoniae, and S. aureus; assay: Growth of other species with TMI supplementation; format: cell-based; details: fluorofolin 2×MIC, 0.3 mM TMI
Protocol: Where listed, growth media were prepared according manufacturer recommendations: LB Broth and LB Broth supplemented with 0.3 mM thymine (BD Biosciences 244610, Alfa Aesar A15879), 0.3 mM methionine (Sigma-Aldrich M9625), 0.3 mM inosine (EMD Millipore 4060), Mueller Hinton II Broth (Cation-Adjusted)/(CAMHB) (BD 212322) or 0.3 mM thymidine (Sigma-Aldrich T1895), Gutnick Minimal Media (1.0 g/L K2SO4, 13.5 g/L K2HPO4, 4.7 g/L KH2PO4, 0.1 g/L of MgSO4-7H2O, 10 mM NH4Cl as a nitrogen source, and 0.4% w/v glucose as a carbon source)^62.

[2] = system: A. baumannii BAA-125; assay: MIC in LB Broth; format: cell-based; details: Acinetobacter baumannii, BAA125, 16 hours at 37° C. in LB Broth, OD600
Protocol: The minimum inhibitory concentration is defined as the lowest concentration of antibiotic at which no visible growth was detected after 16 hours at 37° C. Overnight cultures were diluted 1:150 in LB Broth and added to a 96-well plate. Antibiotics were serially diluted 1:2 and added to columns of the 96-well plate and grown at 37° C. with continuous shaking. Cell growth was measured by optical density (OD600). MIC assays were performed in either BioTek Synergy HT (Winooski, VT) or Tecan InfiniteM200 Pro (Männedorf, CH) microplate readers.

[3] = Serum binding (plasma protein binding, dialysis); format: in vitro ADME; details: mouse plasma
Protocol: An initial t=0 sample was collected. fluorofolin was incubated with plasma for 6 hours after which dialysis was performed. After dialysis, supernatant was collected, and the amount of fluorofolin was determined by LC-MS/MS to determine the % Unbound of fluorofolin. Serum binding parameters were determined as follows: • 1. % Bound=100%−% Unbound • 2. Log K=Log (% Bound/100−% Bound) • 3. % Remaining=Area-ratio6hr/Area-ratio0hr×100% • 4. % Recovery was determined as (Area-ratiobuffer-chamber+Area-ratioplasma-chamber)/(Area-ratioTotal sample)×100 Serum binding analysis was performed by Pharmaron, Inc. (Beijing, ROC). C. elegans Maintenance and Toxicity Assay

[4] = system: co-cultures of E. coli MG1655 and P. aeruginosa PA14; assay: Growth competition assay (co-culture); format: cell-based; details: 50 μg/mL fluorofolin, 1:1 inoculum, overnight, CFU
Protocol: FIG. 3C characterizes competition of P. aeruginosa PA14 and E. coli MG1655 in LB or TMI-supplemented LB media. PA14 and E. coli MG1655 were inoculated at a 1:1 ratio and grown overnight in the presence or absence of 50 μg/mL fluorofolin in each media condition. The following day CFU were counted on LB-agar or Pseudomonas selection agar plates to determine CFU/mL of each species. Data represent mean±SD of triplicate biological and triplicate technical replicates. P values were calculated using unpaired t-test using Prism 9 (P value≤0.001)
Overnight cultures of P. aeruginosa PA14 or E. coli MG1655 were diluted 1:150 into LB Broth in the presence of DMSO or 50 μg/mL fluorofolin with or without TMI supplementation and grown for 16 hours at 37° C. Cultures of each species were grown separately as well as being mixed 1:1. Cultures were plated onto LB Agar or Pseudomonas Selection Agar (Sigma-Aldrich 17208) and CFU counting was carried out as described above. To control for appropriate, Pseudomonas selection, E. coli MG1655 was plated onto Pseudomonas Selection Agar and an absence of colonies was observed. The number of colonies on Pseudomonas Selection Agar plates was reported as the CFU/mL of P. aeruginosa. To calculate CFU/mL of E. coli MG1655, CFU/mL were determined from LB Agar plates, and the CFU/mL of P. aeruginosa were subtracted from these values.

[5] = system: P. aeruginosa PA14; assay: Murine thigh infection model of PA14; format: in vivo, mouse; details: 24 hours
Protocol: FIG. 2C quantifies treatment of mice with fluorofolin (SC) with or without SMX 100 mg/kg (IP).
FIG. 2D characterizes Fluorofolin and SMX treatment of mice fed a diet of thymidine-supplemented chow during PA14 infection. Mice were treated 1 and 12 hours post infection (n=5 for each group). P values from Tukey's multiple comparisons test (P-values≤0.0001).
To investigate the ability of fluorofolin to clear a P. aeruginosa infection in vivo, a murine thigh infection model of PA14 was employed. The maximum tolerated dose of fluorofolin was determined to be 25 mg/kg administered subcutaneously (SC). […] We note that this dose of SMX was previously used to mimic clinically-relevant levels of SMX used for cotreatment with TMP in humans. Mice were inoculated with 5.33 log CFU of P. aeruginosa PA14 CFU of PA14 and treated SC with fluorofolin at 25 mg/kg at 1 and 12 hours post infection. Thighs were harvested 24 hours post infection to determine bacterial load.
It was also sought to support the feasibility of thymidine supplementation in vivo by testing the hypothesis that fluorofolin should remain active in the presence of thymidine supplementation. […]
Female 5-6-week-old CD-1 mice were made neutropenic through intraperitoneal (IP) cyclophosphamide treatment (Cytoxan) prior to this study. […] In vivo efficacy was evaluated by the University of North Texas Health Science Center (Fort Worth, Texas).

Compound: Nc1nc(N)c2c(ccc3c2ccn3Cc2ccnc(F)c2)n1 [fluorofolin]
- rescue of growth inhibition by TMI supplementation [1]: could also be rescued from fluorofolin growth inhibition
- MIC [2]: 31.2 µg/mL
- recovery at 6 h, 1 μM [3]: 91.9%
- effect on co-culture, absence of TMI supplementation ([4]; LB): effectively killed both E. coli and P. aeruginosa
- effect on co-culture, presence of TMI supplementation ([4]; TMI-supplemented LB): selectively inhibited the growth of P. aeruginosa but not E. coli
- growth of PA14 in thigh (bacterial load) ([5]; fluorofolin 25 mg/kg SC + SMX 100 mg/kg IP at 1 and 12 hours post infection, vs no treatment and SMX alone, P<0.0001): significantly inhibited the growth of PA14
- P. aeruginosa load in thigh, thymidine-supplemented diet ([5]; fluorofolin and SMX, mice fed thymidine-supplemented chow, vs untreated mice): significant reduction
